{
  "source": "patent US20070060550A1",
  "about": "“Methods of determining compounds useful in the treatment of bipolar disorder and methods of treating such disorders” (priority 2005, published 2007)",
  "key": {"[1]": {"system": "HMIT", "conditions": "compared with SMIT; cited from earlier work"}, "[2]": {"molecular_target": "T1, prolyl oligopeptidase (Homo sapiens, UniProt P48147)", "T1 construct": "poly-histidine; made in house; host or cells: E. coli", "T1 sequence (P48147 1-710)": "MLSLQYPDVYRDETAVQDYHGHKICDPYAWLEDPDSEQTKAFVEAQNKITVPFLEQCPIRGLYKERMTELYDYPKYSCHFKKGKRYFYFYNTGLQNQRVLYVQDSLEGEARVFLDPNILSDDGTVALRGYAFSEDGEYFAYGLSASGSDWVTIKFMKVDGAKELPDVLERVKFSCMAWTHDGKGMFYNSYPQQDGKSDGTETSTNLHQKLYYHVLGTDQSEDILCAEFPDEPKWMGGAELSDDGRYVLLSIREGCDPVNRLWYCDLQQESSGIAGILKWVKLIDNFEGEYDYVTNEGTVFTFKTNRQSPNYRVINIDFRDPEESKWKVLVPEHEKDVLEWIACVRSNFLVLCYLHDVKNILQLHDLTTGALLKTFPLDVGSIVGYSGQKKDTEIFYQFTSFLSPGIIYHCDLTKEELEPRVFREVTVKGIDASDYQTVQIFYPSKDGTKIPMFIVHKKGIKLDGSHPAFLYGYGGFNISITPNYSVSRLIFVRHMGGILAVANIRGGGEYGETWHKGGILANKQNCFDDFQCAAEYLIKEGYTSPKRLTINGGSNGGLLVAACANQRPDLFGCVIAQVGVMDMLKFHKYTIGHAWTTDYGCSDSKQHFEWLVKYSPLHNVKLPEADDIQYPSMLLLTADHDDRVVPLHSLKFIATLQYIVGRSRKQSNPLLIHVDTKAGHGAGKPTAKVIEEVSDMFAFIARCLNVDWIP", "assay": "prolyl oligopeptidase fluorogenic enzyme assay (Z-Gly-Pro-aminomethyl coumarin)", "format": "biochemical", "conditions": "for effect on prolyl oligopeptidase proteolytic activity: FIG. 9", "excerpt": "For inhibitors of the enzymatic activity on the enzyme prolyl oligopeptidase, the relevant references for several assays can be found in Cheng et al., MCN 2005. Common assays use a peptide-based substrate which, when cleaved from a prorlyl bond, releases a fluorogenic signal that can be quantitated by spectrocopy.\nConveniently, the effect of the candidate compounds that inhibit enzyme activity can be assessed using a labeled substrate that is cleaved or otherwise modified by prolyl oligopeptidase to produce a detachable change such as release of a label. Thus, it is possible to screen candidate inhibitors by measuring the change in the signal from the label caused by the action of prolyl oligopeptidase in the presence and absence of a candidate inhibitor compound. A preferred substrate may be one in which a fluorescent label is employed, such as Z-Gly-Pro-aminomethyl coumarin.\nConveniently, prolyl oligopeptidase enzyme assays can be carried out using a standard fluorogenic assay with the synthetic substrate Z-Gly-Pro-aminomethyl coumarin obtained from Bachem, Switzerland. Recominant prolyl oligopeptidase was produced in E. coli transfected with cDNA encoding the human form of prolyl oligopeptidase cloned into a bacterial expression vector containing either an N-or a C-terminal poly-histidine tag in order to purify the expressed protein. cDNA encoding human […] can be obtained from the MRC's HGMP Resource Center, Hinxton Hall Cambridge, UK (Clone Image No. 3614248)."}, "[3]": {"system": "cortical neurons", "assay": "3H-CDP-DAG accumulation assay of PIns recycling in carbachol-stimulated neurons", "format": "cell-based", "excerpt": "PIns recycling that is limited by the supply of inositol can be assessed by loading cells with ^3H-cytidine, stimulating the cells with carbachol in the presence or absence of lithium, precipitating protein with trichloracetic acid, and then determining how much ^3H accumulates as ^3H-CDP-DAG in the lipid membrane compartment, which can be extracted with chloroform. […] Compounds specifically for this purpose may be designed by a number of computer programs suitable for this purpose.\nA suitable screen therefore will determine compounds that can reverse the effect of lithium as measured by the accumulation of CDP-DAG in carbachol-stimulated neurons. Another means of screening for drugs that reverse the effect of lithium on PIns recycling is to screen for drugs that alter the supply of intracellular inositol in neurons by labelling them with titriated inositol and analysing the patterns of cytosolic inositol phosphates and membrane phoshoinositides: the novelty of this approach is to use cortical neurons rather than non-neural cells or neural cell lines. […] Additional known tricyclics such as protriptyline that could also be tested. […] The same assays can be used to test for other compounds that stimulate PIns cycling including other inhibitors of prolyl oligopeptidase activity.\nThe accumulation of tritiated CDP-DAG in the membrane fraction after loading cells with ^3H-cytidine or the incorporation of ^32P orthophosphate into membrane phospholipids can be used to assess changes in synthetic patterns in the presence or absence of compounds needing to be tested."}, "[4]": {"conditions": "in vivo; cited from earlier work"}, "[5]": {"system": "sensory neuron growth cones", "conditions": "Williams et al., 2002; cited from earlier work"}, "[6]": {"system": "sensory neuron growth cones", "assay": "growth cone collapse / morphology in cultured neurons", "format": "cell-based", "excerpt": "I used the growth cones as a model system for assessing changes in intracellular signalling events in response to drugs: The growth cones have some properties in common with presynaptic nerve terminals in the brain. I argued that, if the signalling changes we see in the growth cones of cultured neurons also occur in mature brain synapses in mood-related circuits, then these changes in neuronal signalling in response to the drugs would very likely affect synaptic transmission and thus also affect mood.\nAnother method of screening for suitable drugs for the prophylactic treatment of bipolar disorder is to look for compounds that have dual effects on the morphology of growth cones. Suitable compounds are those that can inhibit the collapse of growth cones in a way that is reversed by increasing extracellular inositol to 3 mM as well as reverse the effects of 20 μM carbamazepine or 3 mM valproic acid on the collapse of growth cones. Lamotrigine has such properties."}},
  "data": [
    {"smiles": "O=C(CCc1ccc(O)cc1)c1c(O)cc(O)cc1O", "note": "[phloretin]", "values": [
      {"measurement": "strength of HMIT inhibition", "setting": "[1]", "value": "weak inhibitors of HMIT"}
    ]},
    {"smiles": "CNCCC(Oc1ccc(C(F)(F)F)cc1)c1ccccc1", "note": "(stereo not drawn) [fluoxetine]", "values": [
      {"measurement": "effect on prolyl oligopeptidase proteolytic activity", "setting": "[2]", "value": "Only valproic acid inhibited the enzyme"},
      {"measurement": "concentrations at which the antidepressants act on the PIns cycle", "setting": "[3]", "value": "micromolar"},
      {"measurement": "reversal of the inhibitory effects of mood stabilizers on the PIns cycle", "setting": "[3]; cycle first perturbed with lithium, valproic acid or carbamazepine", "value": "can reverse the inhibitory effects of lithium, valproic acid and carbamazepine on the PIns cycle"}
    ]},
    {"smiles": "CNCCCN1c2ccccc2CCc2ccccc21", "note": "[desipramine]", "values": [
      {"measurement": "effect on prolyl oligopeptidase proteolytic activity", "setting": "[2]", "value": "Only valproic acid inhibited the enzyme"},
      {"measurement": "concentrations at which the antidepressants act on the PIns cycle", "setting": "[3]", "value": "micromolar"}
    ]},
    {"smiles": "CCCC(CCC)C(=O)O", "note": "[valproic acid]", "values": [
      {"measurement": "therapeutic blood levels", "setting": "[4]", "value": "0.3 to 0.7", "unit": "mM"},
      {"measurement": "effect on prolyl oligopeptidase proteolytic activity", "setting": "[2]", "value": "inhibited the enzyme"},
      {"measurement": "Ki", "setting": "[2]; read-out: Ki for direct inhibition of PO", "value": "~1000", "unit": "µM"},
      {"measurement": "effect on collapse of sensory neuron growth cones and growth cone area", "setting": "[5]", "value": "inhibit the collapse of sensory neuron growth cones and increase growth cone area"}
    ]},
    {"smiles": "Nc1nnc(-c2cccc(Cl)c2Cl)c(N)n1", "note": "[lamotrigine]", "values": [
      {"measurement": "reversal of the action of carbamazepine or valproic acid on the growth cones", "setting": "[6]; 20 μM carbamazepine or 3 mM valproic acid", "value": "can reverse the action of either carbamazepine or valproic acid on the growth cones"},
      {"measurement": "effect on collapse of growth cones", "setting": "[6]; compound alone", "value": "inhibits the collapse of growth cones"},
      {"measurement": "reversal of the growth cone effect by inositol", "setting": "[6]; increased extracellular inositol (3 mM)", "value": "reversed by increasing the extracellular concentration of inositol"}
    ]},
    {"smiles": "CN1c2ccccc2C(NCCCCCCC(=O)O)c2ccc(Cl)cc2S1(=O)=O", "note": "(stereo not drawn) [tianeptine]", "values": [
      {"measurement": "effective doses in the 3H-CDP-DAG assay", "setting": "[3]; abolition of lithium-induced accumulation, carbachol-stimulated neurons", "value": "10^−6-10^−5 M"},
      {"measurement": "effect on lithium-induced accumulation of 3H-CDP-DAG", "setting": "[3]; carbachol-stimulated neurons, in presence of lithium", "value": "abolished the lithium-induced accumulation"},
      {"measurement": "effect alone in the 3H-CDP-DAG assay", "setting": "[3]; compound alone", "value": "no effect alone"}
    ]},
    {"smiles": "NC(=O)N1c2ccccc2C=Cc2ccccc21", "note": "[carbamazepine]", "values": [
      {"measurement": "effect on prolyl oligopeptidase proteolytic activity", "setting": "[2]", "value": "Only valproic acid inhibited the enzyme"},
      {"measurement": "effect on collapse of sensory neuron growth cones and growth cone area", "setting": "[5]", "value": "inhibit the collapse of sensory neuron growth cones and increase growth cone area"}
    ]}
  ]
}
